Legend:
Type in all cases: cell-based, human
HUVECs [1] = assay: HUVEC proliferation (crystal violet), 10% serum with ECGS; settings: for IC50: Homo sapiens, HUVEC, 10% serum with ECGS, n=3
Experimental: (§1) Human umbilical vein endothelial cells (H 930) were generously supplied by Dr. Tom Maciag, American Red Cross (Gaithersburg, Md., USA) and were used between passages 9 and 14 to avoid senescence. HUVECs were grown on fibronectin-coated tissue culture plastic (200 μg/150 mm dish) in complete medium (Medium 199 (M-199) containing 5 U/mL preservative-free heparin, 25.5 μg/mL ECGS, 10% fetal bovine serum and 100 U/mL penicillin, 100 μg/mL streptomycin, and 0.25 μg/mL fungizone).
The effect of compound 1 on HUVEC proliferation was examined over a 5 day period of culture. Cell monolayers were incubated with increasing concentrations of compound 1 and evaluated incrementally for growth inhibition.
Growth inhibition of HUVECs by compound 1 was measured by crystal violet nuclear stain. Briefly, 50,000 cells were seeded per well in 24 well plates using complete medium in the presence of increasing concentrations of compound 1 (0.01-10 μM) or DMS0 vehicle control (0.1%) and cultures were incubated for 24-120 hours. After incubation, cells were washed carefully with Dulbecco's phosphate-buffered saline (DPBS), fixed and stained with 0.5% crystal violet in 20% methanol. Excess stain was removed with water, the cell monolayers were air-dried, and then bound stain was eluted with a 1:1 solution of 0.1N sodium citrate (pH 4.2): 100% ethanol. Optical density of the eluted samples was determined at 540 nm and the results were expressed as percent of DMSO control cell growth. Data are expressed as percentage of control value and are presented as mean±SEM (n=3).

HUVECs [2] = assay: HUVEC adhesion to basement membrane substrata
Experimental: as §1
Adhesion of control and compound 1-treated HUVECs to specific substrata was tested as follows. Glass slides coated with specific adhesion substrata were prepared by placement of 10 μL aliquots of 25 nM each fibronectin,laminin, gelatin or type IV collagen into triplicate wells of multichamber slides. Slides were incubated at 37° C. for 2 hours and then air-dried overnight. The following day the slides were blocked with 300 μL of blocking buffer (Tris […] pH 7.8, NaCl 111 mM, CaCl2 5 mM, and 1% BSA) for 30 min at 37° C. HUVECs were harvested with trypsin-EDTA and allowed to recover at 37° C. in complete medium for at least 1 hr. The cells were then washed free of serum and resuspended at 1×10^6 cells/mL in control medium followed by addition to the coated wells (200 μL) and incubation at 37° C. for 90 min. After incubation, the slides were washed gently three times with DPBS and the adherent cells were fixed and stained as above. Five high power fields per well in triplicate were counted to determine the number of cells attached to the different substrata. Data are expressed as percentage of control cell adhesion (x±SEM, n=3).

HUVECs [3] = assay: HUVEC vascular tube formation on Matrigel; settings: 24 hr
Experimental: as §1
After 12-24 hours, this rearrangement leads to the development of a network of tube-like structures that resemble capillaries. See, Kubota, et al., J. Cell Biol. 107:1589-1598 (1988).
Matrigel is a solution of murine basement membrane enriched for laminin and collagen type IV and has been used previously as a permissive substrate for vessel formation. See, Albini, et al., Int. J. Oncol. 1:723-730 (1992). The effect of compound 1 on in vitro tube formation was tested using this system. Individual wells of 24 well plates were coated with a 300 μL aliquot of concentrated Matrigel solution (10 mg/mL) and allowed to solidify for 1 hr at 37° C. Compound 1 (1.0, 10 or 20 μM) or DMSO control (0.1%) was added to Matrigel and to the culture media. HUVECs (50,000 cells/well) were incubated on the Matrigel in complete medium for 24 hr then evaluated by phase contrast microscopy and photographed.

bFGF receptor = assay: bFGF-induced tyrosine phosphorylation in HUVECs (phosphotyrosine immunoprecipitation and Western analysis); settings: 10 μM
Experimental: as §1
It exerts its activity through activation of the bFGF receptor kinase with subsequent autophosphorylation of its receptor as well as phosphorylation of other signaling proteins. See, Jaye, et al., Biochim. Biophys. Acta 1135:185-199 (1992). Phosphotyrosine immunoprecipitation and Western analysis were used to investigate the effect of compound 1 on bFGF-mediated tyrosine phosphorylation.
The following day, cells were exposed to bFGF, 10 ng/mL for 15 min at 37° C. Cells were quickly washed with cold DPBS, scraped from the plate and lysed with lysis buffer (50 mM Tris-HCl pH 7.6, 300 mM NaCl, 10 μg/mL aprotinin, 1 mM phenylmethylsulphonylfluoride (PMSF), 400 μM sodium orthovanadate, 400 μM EDTA, 100 mM sodium fluoride, 100 mM sodium pyrophosphate, and 0.5% Triton-X 100) for 1 hr on ice. The lysates were centrifuged at 4° C. at 1200×g for 15 minutes after which the supernatants were saved and protein concentration determined using bicinchoninic assay protein detection method. Aliquots of lysis protein ([…] per sample) were incubated with 10 μg of anti-phosphotyrosine monoclonal antibody, 4G10, pre-conjugated to protein A-sepharose beads for 1 hr at 4° C. The beads were washed three times with buffer containing 0.1% Triton X-100 and then the immunoprecipitated proteins were eluted with 2X Laemmli sample buffer and subjected to 4-12% gradient gel electrophoresis. Proteins were transferred electrically, blocked (7.5% glycine, 5% dry milk, 1% ovalbumin) for 30 min at room temperature, then washed (0.001% ovalbumin, 0.001% dry milk, 0.001% Tween-20 in phosphate-buffered saline (PBS)). […]

## NC(=O)c1nnn(Cc2cc(Cl)c(C(=O)c3ccc(Cl)cc3)c(Cl)c2)c1N [Compound 1, 5-amino-1-(4-(4-chlorobenzoyl)-3,5-dichlorobenzyl)1,2,3-triazole-4-carboxamide]
HUVECs [1]; 0.01-10 μM, 24, 72 and 120 hrs
  inhibition of endothelial cell proliferation (in words): dose-dependent but not time-dependent inhibition
HUVECs [1]; 24 h, 1 day of culture
  IC50: 1310 ± 30 nM
HUVECs [1]; 72 h, 3 days of culture
  IC50: 2140 ± 30 nM
HUVECs [1]; 120 h, 5 days of culture
  IC50: 2080 ± 10 nM
HUVECs [2]; 0-10 μM, 18 hr pretreatment
  inhibition of HUVEC adhesion to all substrata tested (in words): inhibited in a dose-dependent fashion
HUVECs [2]; 1.0 μM, 18 hr pretreatment, P2<0.027
  inhibition of HUVEC adhesion to collagen type IV (in words): statistically significant
HUVECs [2]; 1.0 μM, 18 hr pretreatment, P2<0.04
  inhibition of HUVEC adhesion to laminin (in words): statistically significant
HUVECs [2]; 1.0 μM, 18 hr pretreatment, P2<0.043
  inhibition of HUVEC adhesion to fibronectin (in words): statistically significant
HUVECs [2]; 10.0 μM, 18 hr pretreatment, p2<0.004
  inhibition of HUVEC adhesion to laminin (in words): statistically significant
HUVECs [2]; 10.0 μM, 18 hr pretreatment, p2<0.011
  inhibition of HUVEC adhesion to fibronectin (in words): statistically significant
HUVECs [2]; 10.0 μM, 18 hr pretreatment, p2<0.025
  inhibition of HUVEC adhesion to collagen type IV (in words): statistically significant
HUVECs [2]; preincubation of HUVECs with compound
  inhibition of HUVEC adhesion to gelatin (in words): did not significantly inhibit adhesion
HUVECs [3]; 20 μM, similar when omitted from the Matrigel
  inhibition of tube formation (in words): more striking inhibition of tube formation
HUVECs [3]; compound in Matrigel and media, similar when only in media
  appearance of multicellular tubes vs DMSO control (in words): less extensive, thinner, foreshortened, and less cellular
bFGF receptor; 18 hr, bFGF 10 ng/mL for final 15 minutes
  effect on bFGF-stimulated tyrosine phosphorylation (in words): inhibition of bFGF-stimulated phosphorylation
bFGF receptor; bFGF 10 ng/mL
  effect on bFGF-stimulated tyrosine phosphorylation, including autophosphorylation of bFGF receptor (in words): blocked bFGF-stimulated tyrosine phosphorylation
bFGF receptor; no bFGF
  effect on basal tyrosine phosphorylation (in words): Neither DMSO control (lane 1) or compound 1 (10 μM, lane 2) altered basal tyrosine phosphorylation

Source: patent US5744492A, “Method for inhibiting angiogenesis” (United States of America, priority 1994, dated 1998)
